Source: patent publication US20220378773A1, “METHODS FOR TREATING LEUKEMIA AND USE OF A LEUKEMIC STEM CELL SIGNATURE TO PREDICT CLINICAL SENSITIVITY TO THERAPIES” (CELGENE CORPORATION, priority 2019, published 2022)

What was measured:
[1] = format: physicochemical
Description: Formulation: 5% NMP/45% polyethylene glycol (PEG) 400/50% Saline; NMP—Catalogue no. 69118 (new no. M79603-1L), Fluka; PEG400—Catalogue no. 81172-1L, Fluka; Saline—0.9% sodium chloride.
Preparation: Weigh the desired amount of compound in glass vial. Add NMP and vortex. Make sure that entire compound is wet. Add PEG400 and vortex until clear solution without particulates. Add saline slowly and mix thoroughly for about a minute with hand held homogenizer with disposable tip.

primary AML graft = test: Pilot in vivo dose study on primary AML graft, 2 weeks dosing; design: species or system NOD/SCID mice
Experimental: Intrafemoral Transplantation: One day prior to transplantation, NOD/SCID mice were preconditioned by sublethally irradiating (275 cGy) followed by injection with anti-CD122 antibody (200 μg/mouse) to deplete residual host natural killer (NK) cells. On the day of transplantation, viably frozen AML bulk cells (see Section 6.2.1.2) were thawed, counted, and transplanted intrafemorally into the preconditioned mice at a dose of 5×10^6 cells/mouse in a total volume of 30 μL phosphate buffered saline.
Cells harvested from injected and non-injected bone marrow were stained with mouse anti human antibodies as indicated in Section 6.2.1.3. After staining, washed cells were run on an LSRII flow cytometer (BD, USA) with 10,000 to 20,000 events collected for each sample. Collected data were analyzed by FlowJo software (TreeStar, USA) to assess AML engraftment levels in different tissues as determined by the percentage of human CD45+CD33+ cells.
A pilot study was first conducted to determine the potential dosage that can be used to target primary AML graft in NOD/SCID mice. Two AML patient samples (AML 110500 and AML 90191) were tested at 1.25 or 2.5 mg/kg Compound D once daily (QD) or twice daily (BID) intraperitoneally for a total of 4 different dose/schedule groups (FIG. 4). Following pretreatment with sublethal irradiation and anti-CD122 antibody, NOD/SCID mice were intrafemorally transplanted with AML cells that were previously collected from patients and viably frozen. Mice were dosed with Compound D for 2 weeks post transplantation starting on Day 21. […] Percentage of cells positive with myeloid cell marker CD15 were also elevated in both RF and BM of 2.5 mg/kg BID Compound D-dosed mice (FIG. 4, bottom left). […] Based on this pilot study, Compound D was dosed at 2.5 mg/kg BID for the rest of the in vivo experiments.

GSPT1 = target: T1, GSPT1 (Homo sapiens, UniProt P15170+Q96SW2); test: In vitro GSPT1 degradation in primary AML cells (flow cytometry, MFI); format: cell-based
T1 construct: endogenous in cells; host or cells: primary AML patient cells (peripheral blood mononuclear cells) in short-term suspension culture
Experimental: 6.2.3.1. In Vitro Degradation of G1 to S Phase Transition Protein 1 (GSPT1) by Compound D and Apoptosis Assay
Preparation of Test Article Stock Solutions and Dilutions: Compound D was prepared in anhydrous DMSO to make a 1 M stock solution then further diluted to final concentrations of 3, 30, and 100 nM.
Cell Culture: Materials used for in vitro assays of AML cells included X-VIVO 10 medium supplemented with 15% BIT, and growth factors including 100 ng/mL of stem cell factor, 20 ng/mL of IL-6, 20 ng/mL of G-CSF, 20 ng/mL of IL-3, 100 ng/mL of Flt 3 ligand (each provided by Amgen, USA), 20 ng/mL of GM-CSF (R&D Systems, USA), and 50 ng/mL of thrombopoietin (Kirin Brewery, Japan).
Assay Procedure: After 4 and 24 hours of in vitro culture with DMSO or Compound D, cells were harvested for GSPT1 expression and apoptosis. Levels of GSPT1 were analyzed by flow cytometry using median fluorescence intensity (MFI) and normalized against DMSO controls. Apoptosis was also analyzed by flow cytometry and measured as percentage of cells which were positive for cleaved caspase 3/7.
Viably frozen primary leukemia cells were thawed and plated in suspension culture in the Iscove's Modified Dulbecco's Medium plus 15% BIT Serum Substitute (Stem Cell Technology, Canada), supplemented with multiple human growth factors. Compound D was added to the culture at indicated concentrations.
For GSPT1 expression, intracellular flow cytometry (FACS) was performed at 24 hours in culture by staining cells with GSPT1 conjugated with Alexa Fluor 647. For apoptosis, cells were harvested at 24 hours in culture and stained with Annexin V-PE and 7-aminoactinomycin D (7AAD) (BD Biosciences, USA).

[2] = system: AML graft (CD34, CD15, CD14, CD11b); test: Cell surface marker phenotype of AML graft after treatment; format: in vivo, NOD/SCID mice
Description: After treatment finished, cells were harvested from both injected right femur (RF) and non-injected bone marrow (BM, including left femur, 2 tibias), and stained with human antibodies to assess the engraftment levels of AML. Antibodies used for staining included: Mouse anti-human CD45-APC, CD15-FITC, CD34-APC7, CD38-PC7 (BD Biosciences, USA), CD14-PE, CD33-PC5 (Beckman Coulter, USA), CD19-V450, CD19-AF700, CD11b-APC7, CD34-BV421 (BD Biosciences, USA), and propidium iodide (PI; Invitrogen, USA).
With the observation that Compound D has dramatic effect against AML in mice, the question of whether Compound D targets primitive leukemic cells and induces differentiation was investigated next because AML cells are immature blasts with differentiation and maturation blockage in patients. Samples that were focused on were the samples that still had clear residual leukemia cells in the mice following Compound D treatment. […] The majority of cells harvested from the mice transplanted with patient sample 120093 were CD34+ primitive cells lacking in CD15 expression. […] CD11b is also a myeloid differentiation marker and was increased on patient 150250 grafted cells in parallel with increased expression of another myeloid differentiation marker CD15. […] The changes of CD15, CD14 and CD34 positive populations are summarized in FIGS. 12C-12E and 3 different patterns after Compound D treatment are apparent: increase, decrease, or no change of the populations in AML, graft. The samples with reduction of CD34+ primitive cells and increase of CD15+ and/or CD14+ cells are the samples responding well to Compound D (such as patient samples 110555, 110500, and 120093). […] Secondary transplantation may be performed to determine whether Compound D targeted the LSCs with self-renewal capacity.

T1 sequence (P15170 whole entry): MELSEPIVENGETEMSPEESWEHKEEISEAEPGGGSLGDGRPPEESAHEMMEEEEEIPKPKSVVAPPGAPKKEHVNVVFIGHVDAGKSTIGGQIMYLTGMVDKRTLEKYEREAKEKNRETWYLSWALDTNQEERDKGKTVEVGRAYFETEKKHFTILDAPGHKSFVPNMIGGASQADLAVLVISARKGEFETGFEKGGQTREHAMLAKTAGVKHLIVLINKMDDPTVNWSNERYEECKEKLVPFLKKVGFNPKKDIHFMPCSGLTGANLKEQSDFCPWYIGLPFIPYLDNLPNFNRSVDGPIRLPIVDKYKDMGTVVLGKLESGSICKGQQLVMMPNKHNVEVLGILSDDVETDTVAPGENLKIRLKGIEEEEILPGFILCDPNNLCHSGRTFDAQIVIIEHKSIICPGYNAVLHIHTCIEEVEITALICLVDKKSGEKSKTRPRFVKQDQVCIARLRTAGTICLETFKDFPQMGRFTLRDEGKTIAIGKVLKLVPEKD
T1 sequence (Q96SW2 whole entry): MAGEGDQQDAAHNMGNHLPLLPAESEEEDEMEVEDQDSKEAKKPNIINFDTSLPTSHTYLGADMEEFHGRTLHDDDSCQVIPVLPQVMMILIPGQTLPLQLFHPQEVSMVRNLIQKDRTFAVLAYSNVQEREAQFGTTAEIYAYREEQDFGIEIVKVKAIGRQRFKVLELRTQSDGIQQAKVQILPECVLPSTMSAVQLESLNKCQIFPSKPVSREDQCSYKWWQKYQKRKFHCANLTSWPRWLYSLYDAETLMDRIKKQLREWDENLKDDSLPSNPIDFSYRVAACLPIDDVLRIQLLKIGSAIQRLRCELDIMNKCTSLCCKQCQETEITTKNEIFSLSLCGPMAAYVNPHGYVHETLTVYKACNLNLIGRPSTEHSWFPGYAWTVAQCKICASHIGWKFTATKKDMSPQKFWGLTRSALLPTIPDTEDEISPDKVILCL
T1 sequence (Q16531 whole entry partner): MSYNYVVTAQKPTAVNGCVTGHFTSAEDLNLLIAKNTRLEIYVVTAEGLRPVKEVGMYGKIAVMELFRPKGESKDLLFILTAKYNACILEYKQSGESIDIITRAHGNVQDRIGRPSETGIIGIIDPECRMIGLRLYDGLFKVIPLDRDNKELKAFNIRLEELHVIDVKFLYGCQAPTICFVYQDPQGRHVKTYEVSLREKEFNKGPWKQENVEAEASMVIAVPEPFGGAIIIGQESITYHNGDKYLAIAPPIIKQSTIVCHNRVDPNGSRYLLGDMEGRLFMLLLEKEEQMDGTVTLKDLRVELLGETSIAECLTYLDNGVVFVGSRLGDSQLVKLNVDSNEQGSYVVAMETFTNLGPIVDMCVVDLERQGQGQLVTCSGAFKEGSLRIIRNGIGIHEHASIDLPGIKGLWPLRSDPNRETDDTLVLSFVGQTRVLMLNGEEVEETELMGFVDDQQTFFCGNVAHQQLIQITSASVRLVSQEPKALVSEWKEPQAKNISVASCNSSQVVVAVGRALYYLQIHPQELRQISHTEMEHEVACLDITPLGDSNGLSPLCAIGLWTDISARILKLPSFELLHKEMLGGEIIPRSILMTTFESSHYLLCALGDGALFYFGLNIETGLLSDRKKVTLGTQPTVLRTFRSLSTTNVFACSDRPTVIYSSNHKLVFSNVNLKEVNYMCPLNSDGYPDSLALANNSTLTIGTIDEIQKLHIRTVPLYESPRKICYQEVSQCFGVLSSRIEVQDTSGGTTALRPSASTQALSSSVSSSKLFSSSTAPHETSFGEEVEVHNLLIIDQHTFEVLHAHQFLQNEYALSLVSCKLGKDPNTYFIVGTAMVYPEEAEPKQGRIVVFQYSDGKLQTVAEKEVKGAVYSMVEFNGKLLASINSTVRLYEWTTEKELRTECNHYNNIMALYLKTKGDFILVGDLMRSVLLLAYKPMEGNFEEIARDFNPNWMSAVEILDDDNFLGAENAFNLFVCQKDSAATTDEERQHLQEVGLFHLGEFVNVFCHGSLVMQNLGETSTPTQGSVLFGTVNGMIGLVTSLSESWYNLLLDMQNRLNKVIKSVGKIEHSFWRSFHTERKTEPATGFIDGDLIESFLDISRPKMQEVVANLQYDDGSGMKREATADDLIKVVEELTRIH

Structure (SMILES): O=C1CCC(N2Cc3cc(CNC(=O)C(F)(F)c4ccc(Cl)cc4)ccc3C2=O)C(=O)N1 (stereo not drawn) [Compound D, 2-(4-chlorophenyl)-N-((2-(2,6-dioxopiperidin-3-yl)-1-oxoisoindolin-5-yl)methyl)-2,2-difluoroacetamide]
- stability in formulation [1]: not stable in the formulation over time
- grafted cells (primary AML graft; AML 90191): largely not affected
- CD34+ primitive leukemic cells in RF and BM (primary AML graft; AML 110500, 2.5 mg/kg BID): decreased the most
- percentage of CD15 positive cells in RF and BM (primary AML graft; AML 110500, 2.5 mg/kg BID): elevated
- AML grafts in RF and BM (primary AML graft; AML 110500, 2.5 mg/kg QD and BID): significantly decreased
- AML graft (primary AML graft; AML 110500, 1.25 or 2.5 mg/kg QD or BID IP, 2 weeks, vs vehicle): reduced AML graft of patient sample AML 110500 cells in a dose-dependent manner
- GSPT1 degradation, high vs low LSC17 score samples (GSPT1; 100 nM, 24 hours): samples with high LSC17 scores had significantly higher GSPT1 degradation
- effect on reduction of GSPT1 levels, concentration dependence (GSPT1; 3, 30, 100 nM): concentration dependent
- GSPT1 expression in AML cells (GSPT1; Section 6.3 samples, 24 hours exposure): decreased GSPT1 expression
- GSPT1 levels in AML cells (GSPT1; ten primary AML patient samples, 4 and 24 hours, vs control): reduced GSPT1 levels as early as 4 hours post treatment
- expression of myeloid differentiation marker CD15 ([2]; 3 representative samples): clear increased expression
- CD11b+ leukemia cells ([2]; Patient 130826): decreased CD11b+ leukemia cells
- expression of monocytic cell marker CD14 ([2]; graft of patient 120287): induced expression of monocytic cell marker CD14
- CD11b on grafted cells ([2]; patient 150250): increased
- CD14+ cells ([2]; patient sample 100474): only eliminated CD14+ cells
- CD15 expression ([2]; patient sample 120093): induced CD15 expression
- CD34+ cell population ([2]; patient sample 120093): reduced CD34+ cell population
- CD34+ cells in the graft ([2]; patient samples 100348 and 130826): reduced CD34+ cells
